Measurements: PubChem BioAssay (NCI)
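The compound was tested at five concentrations on cells cultured in 96-well plates, with a 48-hour exposure period. Abbreviation: GI50, concentration required for 50% inhibition of growth. The concentration for full growth arrest is given as TGI.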

Key:
Assay in all cases: DTP human tumour cell line panel, 48 h
[1] = system: U251 CNS
[2] = system: LOX IMVI melanoma
[3] = system: SF-539 CNS
[4] = system: HCT-15 colon
[5] = system: HCC-2998 colon
[6] = system: RXF 393 renal
[7] = system: UACC-257 melanoma
[8] = system: SNB-19 CNS
[9] = system: SK-MEL-5 melanoma
[10] = system: CCRF-CEM leukemia
[11] = system: MCF7 breast
[12] = system: NCI-H460 lung
[13] = system: HT29 colon
[14] = system: SK-OV-3 ovarian
[15] = system: MDA-MB-468 breast
[16] = system: UACC-62 melanoma
[17] = system: TK-10 renal
[18] = system: SN12C renal
[19] = system: SW-620 colon
[20] = system: MALME-3M melanoma
[21] = system: UO-31 renal
[22] = system: SR leukemia
[23] = system: OVCAR-4 ovarian
[24] = system: CAKI-1 renal
[25] = system: NCI-H23 lung
[26] = system: SF-295 CNS
[27] = system: MOLT-4 leukemia
[28] = system: M14 melanoma
[29] = system: A549 NSCLC
[30] = system: HOP-62 NSCLC
[31] = system: T-47D breast
[32] = system: OVCAR-5 ovarian
[33] = system: K-562 leukemia
[34] = system: COLO 205 colon
[35] = system: HOP-92 NSCLC
[36] = system: SK-MEL-2 melanoma
[37] = system: SK-MEL-28 melanoma
[38] = system: A498 renal
[39] = system: OVCAR-3 ovarian
[40] = system: HL-60(TB) leukemia
[41] = system: MDA-MB-231 breast
[42] = system: PC-3 prostate
[43] = system: MDA-MB-435
[44] = system: RPMI-8226 leukemia
[45] = system: NCI-H522 lung
[46] = system: 786-0 renal
[47] = system: NCI-H226 lung
[48] = system: KM12 colon
[49] = system: SNB-75 CNS
[50] = system: HS 578T breast
[51] = system: OVCAR-8 ovarian
[52] = system: HCT-116 colon
[53] = system: BT-549 breast
[54] = system: DU-145 prostate
[55] = system: EKVX NSCLC
[56] = system: IGROV1 ovarian
[57] = system: SF-268 CNS
[58] = system: ACHN renal

With `O=C([Se]C1C=CCCC1)c1ccc(C(=O)[Se]C2C=CCCC2)s1` (stereo unspecified) as the compound, how does the GI50 [1] read?
Its GI50 is 1.94 µM.

And the TGI [1]?
Its TGI is 4.47 µM.

And the GI50 [2]?
Its GI50 is 2.71 µM.

What about the TGI [2] of the same compound?
The TGI was 8.88 µM.

What about the GI50 [3] of the same compound?
Its GI50 is 1.82 µM.

And the TGI [3]?
Its TGI is 3.23 µM.

What about the GI50 [4] of the same compound?
Its GI50 is 3.1 µM.

And the TGI [4]?
The TGI was 11.6 µM.

And the GI50 [5]?
Its GI50 is 2.49 µM.

What about the TGI [5] of the same compound?
The TGI was 6.19 µM.

And the GI50 [6]?
Its GI50 is 2.37 µM.

And the TGI [6]?
The TGI was 5.69 µM.

What about the GI50 [7] of the same compound?
The GI50 was 2.44 µM.

What about the TGI [7] of the same compound?
Its TGI is 6.89 µM.

And the GI50 [8]?
The GI50 was 1.35 µM.

What about the TGI [8] of the same compound?
The TGI was 3.56 µM.

And the GI50 [9]?
Its GI50 is 1.83 µM.

What about the TGI [9] of the same compound?
Its TGI is 3.99 µM.

And the GI50 [10]?
Its GI50 is 2.68 µM.

What about the TGI [10] of the same compound?
The TGI was 8.66 µM.

And the GI50 [11]?
The GI50 was 2.79 µM.

What about the TGI [11] of the same compound?
The TGI was 10.6 µM.

What about the GI50 [12] of the same compound?
Its GI50 is 1.43 µM.

What about the TGI [12] of the same compound?
The TGI was 10.1 µM.

And the GI50 [13]?
Its GI50 is 4.01 µM.

And the TGI [13]?
Its TGI is 25.7 µM.

And the GI50 [14]?
Its GI50 is 2.33 µM.

What about the TGI [14] of the same compound?
The TGI was 5.33 µM.

And the GI50 [15]?
Its GI50 is 2.13 µM.

What about the TGI [15] of the same compound?
Its TGI is 5.18 µM.

What about the GI50 [16] of the same compound?
The GI50 was 1.92 µM.

What about the TGI [16] of the same compound?
Its TGI is 4.2 µM.

And the GI50 [17]?
Its GI50 is 1.87 µM.

What about the TGI [17] of the same compound?
Its TGI is 3.88 µM.

And the GI50 [18]?
The GI50 was 2.05 µM.

And the TGI [18]?
Its TGI is 4.34 µM.

What about the GI50 [19] of the same compound?
The GI50 was 2.32 µM.

And the TGI [19]?
The TGI was 6.01 µM.

What about the GI50 [20] of the same compound?
The GI50 was 2.27 µM.

What about the TGI [20] of the same compound?
Its TGI is 5.52 µM.

What about the GI50 [21] of the same compound?
The GI50 was 1.73 µM.

What about the TGI [21] of the same compound?
The TGI was 3.38 µM.

And the GI50 [22]?
Its GI50 is 2.26 µM.

What about the TGI [22] of the same compound?
The TGI was 5.53 µM.

What about the GI50 [23] of the same compound?
Its GI50 is 2.19 µM.

What about the TGI [23] of the same compound?
The TGI was 4.98 µM.

And the GI50 [24]?
The GI50 was 2.93 µM.

And the TGI [24]?
The TGI was 10.2 µM.

What about the GI50 [25] of the same compound?
The GI50 was 1.95 µM.

What about the TGI [25] of the same compound?
The TGI was 4.18 µM.

And the GI50 [26]?
The GI50 was 0.366 µM.

And the TGI [26]?
Its TGI is 1.64 µM.

And the GI50 [27]?
The GI50 was 2.89 µM.

And the TGI [27]?
The TGI was 8.34 µM.

What about the GI50 [28] of the same compound?
The GI50 was 2.02 µM.

And the TGI [28]?
Its TGI is 4.56 µM.

What about the GI50 [29] of the same compound?
The GI50 was 3.09 µM.

What about the TGI [29] of the same compound?
Its TGI is 18.7 µM.

And the GI50 [30]?
Its GI50 is 1.17 µM.

And the TGI [30]?
The TGI was 6.65 µM.

What about the GI50 [31] of the same compound?
The GI50 was 2.17 µM.

What about the TGI [31] of the same compound?
Its TGI is 5.19 µM.

And the GI50 [32]?
Its GI50 is 2.07 µM.

And the TGI [32]?
Its TGI is 4.75 µM.

What about the GI50 [33] of the same compound?
The GI50 was 3.96 µM.

And the TGI [33]?
The TGI was 49.7 µM.

And the GI50 [34]?
The GI50 was 2.42 µM.

What about the TGI [34] of the same compound?
The TGI was 7.25 µM.

And the GI50 [35]?
The GI50 was 2.85 µM.

What about the TGI [35] of the same compound?
Its TGI is 11 µM.

What about the GI50 [36] of the same compound?
The GI50 was 1.77 µM.

And the TGI [36]?
Its TGI is 3.71 µM.

What about the GI50 [37] of the same compound?
The GI50 was 3.11 µM.

And the TGI [37]?
Its TGI is 11.6 µM.

And the GI50 [38]?
The GI50 was 2.47 µM.

What about the TGI [38] of the same compound?
The TGI was 7.29 µM.

And the GI50 [39]?
Its GI50 is 2.13 µM.

And the TGI [39]?
The TGI was 4.7 µM.

What about the GI50 [40] of the same compound?
Its GI50 is 1.94 µM.

What about the TGI [40] of the same compound?
Its TGI is 4.81 µM.

What about the GI50 [41] of the same compound?
The GI50 was 2.02 µM.

And the TGI [41]?
The TGI was 4.16 µM.

And the GI50 [42]?
Its GI50 is 1.95 µM.

And the TGI [42]?
The TGI was 5.95 µM.

And the GI50 [43]?
Its GI50 is 6.42 µM.

What about the TGI [43] of the same compound?
The TGI was 23.1 µM.

What about the GI50 [44] of the same compound?
The GI50 was 2.53 µM.

And the TGI [44]?
Its TGI is 6.53 µM.

What about the GI50 [45] of the same compound?
Its GI50 is 1.71 µM.

What about the TGI [45] of the same compound?
The TGI was 3.32 µM.

And the GI50 [46]?
Its GI50 is 2.02 µM.

What about the TGI [46] of the same compound?
The TGI was 4.08 µM.

And the GI50 [47]?
The GI50 was 3.42 µM.

What about the TGI [47] of the same compound?
Its TGI is 15.2 µM.

What about the GI50 [48] of the same compound?
Its GI50 is 2.76 µM.

And the TGI [48]?
Its TGI is 7.08 µM.

And the GI50 [49]?
The GI50 was 1.38 µM.

And the TGI [49]?
Its TGI is 2.94 µM.

And the GI50 [50]?
The GI50 was 2.36 µM.

What about the TGI [50] of the same compound?
Its TGI is 6.69 µM.

What about the GI50 [51] of the same compound?
The GI50 was 1.79 µM.

What about the TGI [51] of the same compound?
The TGI was 3.47 µM.

What about the GI50 [52] of the same compound?
The GI50 was 2.87 µM.

And the TGI [52]?
Its TGI is 8.75 µM.

And the GI50 [53]?
The GI50 was 3.55 µM.

And the TGI [53]?
The TGI was 11.7 µM.

And the GI50 [54]?
Its GI50 is 3.48 µM.

And the TGI [54]?
The TGI was 11.5 µM.

And the GI50 [55]?
The GI50 was 2.01 µM.

What about the TGI [55] of the same compound?
Its TGI is 4.7 µM.

And the GI50 [56]?
The GI50 was 1.81 µM.

What about the TGI [56] of the same compound?
The TGI was 3.48 µM.

And the GI50 [57]?
Its GI50 is 3.34 µM.

And the TGI [57]?
Its TGI is 16.9 µM.

What about the GI50 [58] of the same compound?
Its GI50 is 2.32 µM.

What about the TGI [58] of the same compound?
Its TGI is 5.58 µM.
